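All cell lines were grown in 96-well plates and treated with compound for 48 hours. TGI: concentration producing complete growth inhibition.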
Columns and labels:
Test in all cases: NCI-60 cell line screen, 48 h
786-0 renal = tested on: 786-0 renal
A498 renal = tested on: A498 renal
A549 NSCLC = tested on: A549 NSCLC
ACHN renal = tested on: ACHN renal
CAKI-1 renal = tested on: CAKI-1 renal
CCRF-CEM leukemia = tested on: CCRF-CEM leukemia
COLO 205 colon = tested on: COLO 205 colon
DLD-1 colon = tested on: DLD-1 colon
DMS 114 small cell lung = tested on: DMS 114 small cell lung
DMS 273 small cell lung = tested on: DMS 273 small cell lung
EKVX NSCLC = tested on: EKVX NSCLC
HCC-2998 colon = tested on: HCC-2998 colon
HCT-116 colon = tested on: HCT-116 colon
HCT-15 colon = tested on: HCT-15 colon
HL-60(TB) leukemia = tested on: HL-60(TB) leukemia
HOP-18 NSCLC = tested on: HOP-18 NSCLC
HOP-62 NSCLC = tested on: HOP-62 NSCLC
HOP-92 NSCLC = tested on: HOP-92 NSCLC
HT29 colon = tested on: HT29 colon
IGROV1 ovarian = tested on: IGROV1 ovarian
K-562 leukemia = tested on: K-562 leukemia
KM12 colon = tested on: KM12 colon
KM20L2 colon = tested on: KM20L2 colon
LOX IMVI melanoma = tested on: LOX IMVI melanoma
LXFL 529 NSCLC = tested on: LXFL 529 NSCLC
M14 melanoma = tested on: M14 melanoma
M19-MEL melanoma = tested on: M19-MEL melanoma
MALME-3M melanoma = tested on: MALME-3M melanoma
MOLT-4 leukemia = tested on: MOLT-4 leukemia
NCI-H226 lung = tested on: NCI-H226 lung
NCI-H23 lung = tested on: NCI-H23 lung
NCI-H460 lung = tested on: NCI-H460 lung
NCI-H522 lung = tested on: NCI-H522 lung
OVCAR-3 ovarian = tested on: OVCAR-3 ovarian
OVCAR-4 ovarian = tested on: OVCAR-4 ovarian
OVCAR-5 ovarian = tested on: OVCAR-5 ovarian
OVCAR-8 ovarian = tested on: OVCAR-8 ovarian
RPMI-8226 leukemia = tested on: RPMI-8226 leukemia
RXF 393 renal = tested on: RXF 393 renal
SF-268 CNS = tested on: SF-268 CNS
SF-295 CNS = tested on: SF-295 CNS
SF-539 CNS = tested on: SF-539 CNS
SK-MEL-28 melanoma = tested on: SK-MEL-28 melanoma
SK-MEL-5 melanoma = tested on: SK-MEL-5 melanoma
SK-OV-3 ovarian = tested on: SK-OV-3 ovarian
SN12C renal = tested on: SN12C renal
SNB-19 CNS = tested on: SNB-19 CNS
SNB-75 CNS = tested on: SNB-75 CNS
SNB-78 CNS = tested on: SNB-78 CNS
SW-620 colon = tested on: SW-620 colon
U251 CNS = tested on: U251 CNS
UACC-257 melanoma = tested on: UACC-257 melanoma
UACC-62 melanoma = tested on: UACC-62 melanoma
UO-31 renal = tested on: UO-31 renal
XF 498 CNS = tested on: XF 498 CNS
SK-MEL-2 melanoma = tested on: SK-MEL-2 melanoma
TK-10 renal = tested on: TK-10 renal
BT-549 breast = tested on: BT-549 breast
DU-145 prostate = tested on: DU-145 prostate
HS 578T breast = tested on: HS 578T breast
MCF7 breast = tested on: MCF7 breast
MDA-MB-435 = tested on: MDA-MB-435
MDA-N = tested on: MDA-N
PC-3 prostate = tested on: PC-3 prostate
SR leukemia = tested on: SR leukemia
T-47D breast = tested on: T-47D breast

Cc1ccc(C)c(NC(=O)c2cccc([N+](=O)[O-])c2O)c1
TGI (786-0 renal): > 100 µM | TGI (A498 renal): 80.9 µM | TGI (A549 NSCLC): > 100 µM | TGI (ACHN renal): 57.6 µM | TGI (CAKI-1 renal): > 100 µM | TGI (CCRF-CEM leukemia): > 100 µM | TGI (COLO 205 colon): 31.1 µM | TGI (DLD-1 colon): > 100 µM | TGI (DMS 114 small cell lung): 47.6 µM | TGI (DMS 273 small cell lung): 77.5 µM | TGI (EKVX NSCLC): > 100 µM | TGI (HCC-2998 colon): > 100 µM | TGI (HCT-116 colon): 81 µM | TGI (HCT-15 colon): > 100 µM | TGI (HL-60(TB) leukemia): > 100 µM | TGI (HOP-18 NSCLC): > 100 µM | TGI (HOP-62 NSCLC): 47.1 µM | TGI (HOP-92 NSCLC): 41.3 µM | TGI (HT29 colon): > 100 µM | TGI (IGROV1 ovarian): > 100 µM | TGI (K-562 leukemia): > 100 µM | TGI (KM12 colon): 61.5 µM | TGI (KM20L2 colon): > 100 µM | TGI (LOX IMVI melanoma): 53.5 µM | TGI (LXFL 529 NSCLC): > 100 µM | TGI (M14 melanoma): > 100 µM | TGI (M19-MEL melanoma): 82.1 µM | TGI (MALME-3M melanoma): 81.6 µM | TGI (MOLT-4 leukemia): > 100 µM | TGI (NCI-H226 lung): 68.8 µM | TGI (NCI-H23 lung): 49 µM | TGI (NCI-H460 lung): 68.4 µM | TGI (NCI-H522 lung): 67.2 µM | TGI (OVCAR-3 ovarian): > 100 µM | TGI (OVCAR-4 ovarian): 80.8 µM | TGI (OVCAR-5 ovarian): > 100 µM | TGI (OVCAR-8 ovarian): > 100 µM | TGI (RPMI-8226 leukemia): > 100 µM | TGI (RXF 393 renal): 37.8 µM | TGI (SF-268 CNS): > 100 µM | TGI (SF-295 CNS): 41.5 µM | TGI (SF-539 CNS): > 100 µM | TGI (SK-MEL-28 melanoma): > 100 µM | TGI (SK-MEL-5 melanoma): 25.2 µM | TGI (SK-OV-3 ovarian): > 100 µM | TGI (SN12C renal): > 100 µM | TGI (SNB-19 CNS): > 100 µM | TGI (SNB-75 CNS): 63.8 µM | TGI (SNB-78 CNS): 56.9 µM | TGI (SW-620 colon): > 100 µM | TGI (U251 CNS): > 100 µM | TGI (UACC-257 melanoma): 63 µM | TGI (UACC-62 melanoma): 82.9 µM | TGI (UO-31 renal): 51.9 µM | TGI (XF 498 CNS): 67.3 µM

CC1=Cc2cccc(C)c2C(=O)C1=O
TGI (786-0 renal): 6.96 µM | TGI (A498 renal): 30.9 µM | TGI (A549 NSCLC): 25.1 µM | TGI (CAKI-1 renal): 32.5 µM | TGI (COLO 205 colon): 3.49 µM | TGI (DLD-1 colon): 4.32 µM | TGI (DMS 273 small cell lung): 38.2 µM | TGI (EKVX NSCLC): 24.5 µM | TGI (HCC-2998 colon): 27.8 µM | TGI (HCT-116 colon): 6.88 µM | TGI (HCT-15 colon): 16.4 µM | TGI (HL-60(TB) leukemia): 1.37 µM | TGI (HOP-18 NSCLC): 2.79 µM | TGI (HOP-62 NSCLC): 30.2 µM | TGI (HOP-92 NSCLC): 2.92 µM | TGI (HT29 colon): 32.3 µM | TGI (IGROV1 ovarian): 29.2 µM | TGI (KM12 colon): 19.7 µM | TGI (KM20L2 colon): 35.5 µM | TGI (LOX IMVI melanoma): 21.5 µM | TGI (LXFL 529 NSCLC): 5.27 µM | TGI (M14 melanoma): 9.54 µM | TGI (M19-MEL melanoma): 23.6 µM | TGI (MALME-3M melanoma): 3.26 µM | TGI (NCI-H226 lung): 30.5 µM | TGI (NCI-H23 lung): 32.8 µM | TGI (NCI-H460 lung): 41.9 µM | TGI (NCI-H522 lung): 9.87 µM | TGI (OVCAR-3 ovarian): 6.78 µM | TGI (OVCAR-4 ovarian): 10.1 µM | TGI (OVCAR-5 ovarian): 34.2 µM | TGI (OVCAR-8 ovarian): 41.7 µM | TGI (RPMI-8226 leukemia): 4.36 µM | TGI (RXF 393 renal): 8.85 µM | TGI (SF-268 CNS): 25.9 µM | TGI (SF-295 CNS): 11.1 µM | TGI (SF-539 CNS): 15.5 µM | TGI (SK-MEL-2 melanoma): 31.9 µM | TGI (SK-MEL-28 melanoma): 31.5 µM | TGI (SK-MEL-5 melanoma): 10.7 µM | TGI (SK-OV-3 ovarian): 36.8 µM | TGI (SN12C renal): 37.2 µM | TGI (SNB-19 CNS): 45.3 µM | TGI (SNB-75 CNS): 29.9 µM | TGI (SNB-78 CNS): > 100 µM | TGI (SW-620 colon): 10.3 µM | TGI (TK-10 renal): 4.75 µM | TGI (U251 CNS): 41 µM | TGI (UACC-257 melanoma): 4.72 µM | TGI (UACC-62 melanoma): 10.7 µM | TGI (UO-31 renal): 27.1 µM | TGI (XF 498 CNS): 9.65 µM

N#C/C(=C\c1ccc2ccccc2c1)C(=O)c1ccccc1
TGI (786-0 renal): > 85.5 µM | TGI (A498 renal): > 100 µM | TGI (A549 NSCLC): > 100 µM | TGI (ACHN renal): > 100 µM | TGI (BT-549 breast): > 100 µM | TGI (CAKI-1 renal): > 100 µM | TGI (CCRF-CEM leukemia): 63.7 µM | TGI (COLO 205 colon): > 100 µM | TGI (DLD-1 colon): > 100 µM | TGI (DMS 114 small cell lung): > 100 µM | TGI (DMS 273 small cell lung): > 100 µM | TGI (DU-145 prostate): > 100 µM | TGI (EKVX NSCLC): > 100 µM | TGI (HCC-2998 colon): > 100 µM | TGI (HCT-116 colon): > 80.4 µM | TGI (HCT-15 colon): > 100 µM | TGI (HL-60(TB) leukemia): 71.9 µM | TGI (HOP-18 NSCLC): > 100 µM | TGI (HOP-62 NSCLC): 51.4 µM | TGI (HS 578T breast): 77.6 µM | TGI (HT29 colon): > 100 µM | TGI (IGROV1 ovarian): > 100 µM | TGI (K-562 leukemia): 99.2 µM | TGI (KM12 colon): > 100 µM | TGI (KM20L2 colon): > 100 µM | TGI (LOX IMVI melanoma): 52 µM | TGI (LXFL 529 NSCLC): > 100 µM | TGI (M14 melanoma): > 88.4 µM | TGI (M19-MEL melanoma): > 100 µM | TGI (MALME-3M melanoma): > 100 µM | TGI (MCF7 breast): > 100 µM | TGI (MDA-MB-435): 43.2 µM | TGI (MDA-N): > 100 µM | TGI (MOLT-4 leukemia): 68.8 µM | TGI (NCI-H226 lung): > 100 µM | TGI (NCI-H23 lung): > 74.4 µM | TGI (NCI-H460 lung): > 100 µM | TGI (NCI-H522 lung): > 100 µM | TGI (OVCAR-3 ovarian): > 94.4 µM | TGI (OVCAR-4 ovarian): > 100 µM | TGI (OVCAR-5 ovarian): > 100 µM | TGI (OVCAR-8 ovarian): > 46.4 µM | TGI (PC-3 prostate): > 100 µM | TGI (RPMI-8226 leukemia): 97.8 µM | TGI (RXF 393 renal): > 55.4 µM | TGI (SF-268 CNS): > 100 µM | TGI (SF-295 CNS): > 100 µM | TGI (SF-539 CNS): > 100 µM | TGI (SK-MEL-2 melanoma): > 100 µM | TGI (SK-MEL-28 melanoma): > 100 µM | TGI (SK-MEL-5 melanoma): > 78.5 µM | TGI (SK-OV-3 ovarian): > 100 µM | TGI (SN12C renal): > 87.2 µM | TGI (SNB-19 CNS): > 100 µM | TGI (SNB-75 CNS): > 100 µM | TGI (SNB-78 CNS): > 100 µM | TGI (SR leukemia): > 100 µM | TGI (SW-620 colon): > 81.4 µM | TGI (T-47D breast): > 100 µM | TGI (TK-10 renal): > 100 µM | TGI (U251 CNS): 32.9 µM | TGI (UACC-257 melanoma): > 100 µM | TGI (UACC-62 melanoma): > 78.5 µM | TGI (UO-31 renal): > 100 µM | TGI (XF 498 CNS): > 100 µM

Source: PubChem BioAssay (NCI)
